Experimental data from the kinase profiling compilation of Christmann-Franck et al. (2016).

Tests used:
Experiment in all cases: radiometric filter-binding kinase assay, Kinase HotSpot
Details in all cases: compound 0.5 µM; ATP 10 µM
ERBB4 (human) = ERBB4 (human) (UniProt Q15303)
CAMK1 (human) = CAMK1 (human) (UniProt Q14012)
ROCK1 (human) = ROCK1 (human) (UniProt Q13464)
PNCK (human) = PNCK (human) (UniProt Q6P2M8)
HIPK2 (human) = HIPK2 (human) (UniProt Q9H2X6)
MAP2K2 (human) = MAP2K2 (human) (UniProt P36507)
EPHB2 (human) = EPHB2 (human) (UniProt P29323)
KDR (human) = KDR (human) (UniProt P35968)
NUAK1 (human) = NUAK1 (human) (UniProt O60285)
CSF1R (human) = CSF1R (human) (UniProt P07333)
CLK3 (human) = CLK3 (human) (UniProt P49761)
MAPK10 (human) = MAPK10 (human) (UniProt P53779)
PRKX (human) = PRKX (human) (UniProt P51817)
RPS6KB2 (human) = RPS6KB2 (human) (UniProt Q9UBS0)
MAP3K8 (human) = MAP3K8 (human) (UniProt P41279)
RAF1 (human) = RAF1 (human) (UniProt P04049)
Chain of RAF1 (human) (P04049 whole entry, looked up): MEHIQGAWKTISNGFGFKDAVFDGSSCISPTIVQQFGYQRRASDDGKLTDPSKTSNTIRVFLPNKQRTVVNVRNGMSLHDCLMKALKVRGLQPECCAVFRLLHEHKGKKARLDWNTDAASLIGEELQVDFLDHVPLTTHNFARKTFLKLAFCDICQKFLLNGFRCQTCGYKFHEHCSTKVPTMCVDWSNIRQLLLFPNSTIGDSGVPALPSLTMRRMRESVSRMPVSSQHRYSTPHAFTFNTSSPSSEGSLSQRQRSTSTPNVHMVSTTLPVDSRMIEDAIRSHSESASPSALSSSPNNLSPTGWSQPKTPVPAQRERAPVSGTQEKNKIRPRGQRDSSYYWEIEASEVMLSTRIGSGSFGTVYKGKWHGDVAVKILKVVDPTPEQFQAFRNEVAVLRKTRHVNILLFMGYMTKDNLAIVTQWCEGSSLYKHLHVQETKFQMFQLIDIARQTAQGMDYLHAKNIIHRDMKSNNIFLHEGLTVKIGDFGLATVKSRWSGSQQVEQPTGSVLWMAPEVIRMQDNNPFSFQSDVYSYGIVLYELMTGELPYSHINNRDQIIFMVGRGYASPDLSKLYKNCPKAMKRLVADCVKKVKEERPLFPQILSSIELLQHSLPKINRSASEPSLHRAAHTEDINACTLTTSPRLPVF

IRAK4 (human) = IRAK4 (human) (UniProt Q9NWZ3)
ZAP70 (human) = ZAP70 (human) (UniProt P43403)
CLK4 (human) = CLK4 (human) (UniProt Q9HAZ1)
MAP3K14 (human) = MAP3K14 (human) (UniProt Q99558)
PAK6 (human) = PAK6 (human) (UniProt Q9NQU5)
STK11 (human) = STK11 (human) (UniProt Q15831)
LTK (human) = LTK (human) (UniProt P29376)
NEK7 (human) = NEK7 (human) (UniProt Q8TDX7)
MAPK9 (human) = MAPK9 (human) (UniProt P45984)
CSNK1G3 (human) = CSNK1G3 (human) (UniProt Q9Y6M4)
MARK4 (human) = MARK4 (human) (UniProt Q96L34)
Chain of MARK4 (human) (Q96L34 whole entry, looked up): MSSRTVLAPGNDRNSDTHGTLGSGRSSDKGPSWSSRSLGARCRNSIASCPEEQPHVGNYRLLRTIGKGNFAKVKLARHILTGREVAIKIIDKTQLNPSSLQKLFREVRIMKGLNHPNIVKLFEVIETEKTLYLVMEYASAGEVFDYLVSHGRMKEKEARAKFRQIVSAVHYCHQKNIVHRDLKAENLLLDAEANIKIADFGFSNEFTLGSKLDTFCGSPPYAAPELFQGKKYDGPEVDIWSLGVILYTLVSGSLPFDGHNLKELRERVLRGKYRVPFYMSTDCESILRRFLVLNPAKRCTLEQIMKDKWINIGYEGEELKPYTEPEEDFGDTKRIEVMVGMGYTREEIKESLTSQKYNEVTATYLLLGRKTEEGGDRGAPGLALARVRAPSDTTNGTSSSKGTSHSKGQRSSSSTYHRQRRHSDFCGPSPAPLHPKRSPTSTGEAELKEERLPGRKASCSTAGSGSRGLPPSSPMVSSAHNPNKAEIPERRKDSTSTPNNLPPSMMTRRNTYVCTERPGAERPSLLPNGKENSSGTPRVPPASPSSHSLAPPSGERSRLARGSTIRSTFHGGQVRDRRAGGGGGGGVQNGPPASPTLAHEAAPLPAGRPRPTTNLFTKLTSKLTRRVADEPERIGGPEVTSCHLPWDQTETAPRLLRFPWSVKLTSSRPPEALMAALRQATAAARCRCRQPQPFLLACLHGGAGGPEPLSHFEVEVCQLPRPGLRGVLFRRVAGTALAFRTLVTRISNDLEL

JAK3 JH1 JH2 (human) = JAK3 JH1 JH2 (human) (UniProt P52333)
Chain of JAK3 JH1 JH2 (human) (P52333 whole entry, looked up): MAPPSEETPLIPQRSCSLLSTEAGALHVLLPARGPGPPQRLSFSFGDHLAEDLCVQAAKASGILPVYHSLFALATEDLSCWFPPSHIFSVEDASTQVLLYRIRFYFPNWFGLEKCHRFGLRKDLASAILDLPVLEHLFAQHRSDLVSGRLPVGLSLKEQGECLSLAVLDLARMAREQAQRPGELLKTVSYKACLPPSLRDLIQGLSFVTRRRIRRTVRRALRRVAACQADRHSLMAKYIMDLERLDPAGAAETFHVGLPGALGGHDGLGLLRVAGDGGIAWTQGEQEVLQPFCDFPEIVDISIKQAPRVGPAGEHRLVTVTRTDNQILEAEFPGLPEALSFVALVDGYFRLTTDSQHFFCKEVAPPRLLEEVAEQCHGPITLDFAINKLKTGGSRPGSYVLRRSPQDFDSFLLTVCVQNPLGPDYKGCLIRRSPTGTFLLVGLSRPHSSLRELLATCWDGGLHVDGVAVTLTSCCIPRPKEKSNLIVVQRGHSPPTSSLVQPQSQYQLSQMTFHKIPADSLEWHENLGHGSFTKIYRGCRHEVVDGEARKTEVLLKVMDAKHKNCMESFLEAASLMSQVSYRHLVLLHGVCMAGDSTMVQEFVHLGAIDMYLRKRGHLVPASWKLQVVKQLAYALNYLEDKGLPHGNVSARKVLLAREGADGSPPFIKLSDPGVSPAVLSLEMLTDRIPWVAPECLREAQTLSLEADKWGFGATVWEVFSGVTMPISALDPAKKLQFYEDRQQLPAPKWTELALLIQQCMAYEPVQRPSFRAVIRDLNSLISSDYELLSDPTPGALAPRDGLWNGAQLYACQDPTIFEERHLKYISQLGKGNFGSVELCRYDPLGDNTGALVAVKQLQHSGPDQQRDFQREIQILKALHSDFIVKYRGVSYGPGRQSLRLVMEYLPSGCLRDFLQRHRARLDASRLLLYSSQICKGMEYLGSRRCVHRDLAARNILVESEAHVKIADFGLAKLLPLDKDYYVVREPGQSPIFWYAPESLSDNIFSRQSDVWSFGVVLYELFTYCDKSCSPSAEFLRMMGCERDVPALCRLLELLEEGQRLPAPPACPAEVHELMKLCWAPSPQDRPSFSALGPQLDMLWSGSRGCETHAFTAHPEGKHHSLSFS

DYRK4 (human) = DYRK4 (human) (UniProt Q9NR20)
PAK4 (human) = PAK4 (human) (UniProt O96013)
ULK2 (human) = ULK2 (human) (UniProt Q8IYT8)
MST4 (human) = MST4 (human) (UniProt Q9P289)
Chain of MST4 (human) (Q9P289 whole entry, looked up): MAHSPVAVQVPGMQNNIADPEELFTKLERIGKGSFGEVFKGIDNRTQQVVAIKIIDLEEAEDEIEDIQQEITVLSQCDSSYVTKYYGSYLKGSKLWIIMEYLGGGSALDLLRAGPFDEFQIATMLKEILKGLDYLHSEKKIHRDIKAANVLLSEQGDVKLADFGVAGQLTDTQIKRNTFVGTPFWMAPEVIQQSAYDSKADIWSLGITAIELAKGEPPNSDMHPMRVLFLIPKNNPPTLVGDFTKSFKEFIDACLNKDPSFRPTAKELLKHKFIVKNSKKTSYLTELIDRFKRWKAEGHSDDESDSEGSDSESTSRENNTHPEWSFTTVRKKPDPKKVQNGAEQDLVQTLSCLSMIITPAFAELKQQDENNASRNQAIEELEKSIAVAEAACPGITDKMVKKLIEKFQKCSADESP

CDK5 CDK5R1 p25 (human) = CDK5 CDK5R1 p25 (human) (UniProt Q00535+Q15078)
CLK2 (human) = CLK2 (human) (UniProt P49760)
TAOK2 (human) = TAOK2 (human) (UniProt Q9UL54)
FER (human) = FER (human) (UniProt P16591)
ALK (human) = ALK (human) (UniProt Q9UM73)
MST1R (human) = MST1R (human) (UniProt Q04912)
TGFBR1 (human) = TGFBR1 (human) (UniProt P36897)
DSTYK (human) = DSTYK (human) (UniProt Q6XUX3)
PHKG2 (human) = PHKG2 (human) (UniProt P15735)
Chain of PHKG2 (human) (P15735 whole entry, looked up): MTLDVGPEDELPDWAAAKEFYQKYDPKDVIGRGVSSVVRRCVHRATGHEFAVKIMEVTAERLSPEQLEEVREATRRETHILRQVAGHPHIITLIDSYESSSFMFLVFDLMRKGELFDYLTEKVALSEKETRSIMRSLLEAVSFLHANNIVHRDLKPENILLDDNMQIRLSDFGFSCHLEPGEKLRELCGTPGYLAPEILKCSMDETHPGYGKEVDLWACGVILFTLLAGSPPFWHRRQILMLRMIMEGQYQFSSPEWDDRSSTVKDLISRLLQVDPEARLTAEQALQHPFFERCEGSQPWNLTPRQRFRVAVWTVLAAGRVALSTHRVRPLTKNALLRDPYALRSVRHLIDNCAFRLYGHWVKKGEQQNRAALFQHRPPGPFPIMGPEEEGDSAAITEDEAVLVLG

TEK (human) = TEK (human) (UniProt Q02763)

Chain of HIPK2 (human) (Q9H2X6 whole entry, looked up): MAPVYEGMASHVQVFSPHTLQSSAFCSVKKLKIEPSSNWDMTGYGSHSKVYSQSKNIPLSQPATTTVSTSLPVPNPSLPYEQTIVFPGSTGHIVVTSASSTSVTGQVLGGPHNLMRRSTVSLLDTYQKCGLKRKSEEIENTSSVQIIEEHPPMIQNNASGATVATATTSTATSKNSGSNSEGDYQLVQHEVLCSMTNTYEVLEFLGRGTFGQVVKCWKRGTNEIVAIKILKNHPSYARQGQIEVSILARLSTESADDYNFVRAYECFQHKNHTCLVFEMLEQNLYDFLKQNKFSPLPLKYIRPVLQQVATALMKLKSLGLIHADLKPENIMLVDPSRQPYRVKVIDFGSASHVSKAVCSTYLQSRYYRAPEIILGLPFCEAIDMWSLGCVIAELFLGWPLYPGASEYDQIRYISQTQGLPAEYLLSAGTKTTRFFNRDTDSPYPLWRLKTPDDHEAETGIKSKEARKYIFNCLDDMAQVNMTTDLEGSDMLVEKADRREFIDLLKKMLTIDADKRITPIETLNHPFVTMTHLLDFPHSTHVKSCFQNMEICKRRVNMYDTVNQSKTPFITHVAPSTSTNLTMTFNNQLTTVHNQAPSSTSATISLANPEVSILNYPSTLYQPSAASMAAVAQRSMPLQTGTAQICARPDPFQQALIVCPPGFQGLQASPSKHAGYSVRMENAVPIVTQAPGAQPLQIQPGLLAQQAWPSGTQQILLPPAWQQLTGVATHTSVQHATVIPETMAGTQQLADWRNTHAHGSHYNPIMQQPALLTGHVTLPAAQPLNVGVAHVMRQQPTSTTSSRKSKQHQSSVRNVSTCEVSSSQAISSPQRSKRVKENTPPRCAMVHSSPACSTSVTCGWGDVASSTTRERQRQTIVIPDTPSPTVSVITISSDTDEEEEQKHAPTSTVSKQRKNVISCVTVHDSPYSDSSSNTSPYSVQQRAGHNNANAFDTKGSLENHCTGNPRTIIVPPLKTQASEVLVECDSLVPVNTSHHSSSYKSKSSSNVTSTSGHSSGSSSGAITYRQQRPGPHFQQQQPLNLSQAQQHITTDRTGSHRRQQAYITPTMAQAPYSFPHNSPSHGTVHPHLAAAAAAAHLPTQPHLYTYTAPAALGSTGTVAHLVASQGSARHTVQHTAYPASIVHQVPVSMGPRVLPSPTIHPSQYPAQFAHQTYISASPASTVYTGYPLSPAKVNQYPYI
Chain of PNCK (human) (Q6P2M8 whole entry, looked up): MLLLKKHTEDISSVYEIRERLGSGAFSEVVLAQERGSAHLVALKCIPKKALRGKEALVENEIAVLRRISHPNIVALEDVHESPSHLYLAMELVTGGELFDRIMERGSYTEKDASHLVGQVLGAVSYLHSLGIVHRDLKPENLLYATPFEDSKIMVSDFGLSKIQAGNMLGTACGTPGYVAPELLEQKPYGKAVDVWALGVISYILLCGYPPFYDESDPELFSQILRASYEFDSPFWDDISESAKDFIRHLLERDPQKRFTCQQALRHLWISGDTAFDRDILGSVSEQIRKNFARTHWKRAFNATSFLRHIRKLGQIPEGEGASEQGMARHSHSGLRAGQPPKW

Molecule CCn1cnc2c(Nc3cccc(Cl)c3)nc(N[C@@H]3CCCC[C@@H]3N)nc21 has a residual activity (ERBB4 (human)) of 103%, a residual activity (CAMK1 (human)) of 103% and a residual activity (ROCK1 (human)) of 96.5%. For the same molecule, the residual activity (PNCK (human)) was 98.5%, the residual activity (HIPK2 (human)) was 94% and the residual activity (MAP2K2 (human)) was 107%. For the same molecule, the residual activity (EPHB2 (human)) was 82.9%, the residual activity (KDR (human)) was 96.5% and the residual activity (NUAK1 (human)) was 52.4%. The residual activity (CSF1R (human)) was 94.2%, the residual activity (CLK3 (human)) was 99.8% and the residual activity (MAPK10 (human)) was 98.8%. The residual activity (PRKX (human)) was 102%, the residual activity (RPS6KB2 (human)) was 103% and the residual activity (MAP3K8 (human)) was 93.6%. The residual activity (RAF1 (human)) was 92.8%, the residual activity (IRAK4 (human)) was 94.8% and the residual activity (ZAP70 (human)) was 106%. For the same molecule, the residual activity (CLK4 (human)) was 49.9%, the residual activity (MAP3K14 (human)) was 85.1% and the residual activity (PAK6 (human)) was 96.7%. The residual activity (STK11 (human)) was 78%, the residual activity (LTK (human)) was 93.8% and the residual activity (NEK7 (human)) was 86%. The residual activity (MAPK9 (human)) was 102%, the residual activity (CSNK1G3 (human)) was 45.9% and the residual activity (MARK4 (human)) was 95.5%. The residual activity (JAK3 JH1 JH2 (human)) was 99.6%, the residual activity (DYRK4 (human)) was 95.1% and the residual activity (PAK4 (human)) was 84.5%. The residual activity (ULK2 (human)) was 94.2%, the residual activity (MST4 (human)) was 104% and the residual activity (CDK5 CDK5R1 p25 (human)) was 5.16%. For the same molecule, the residual activity (CLK2 (human)) was 26.6%, the residual activity (TAOK2 (human)) was 101% and the residual activity (FER (human)) was 86.8%. It also gave a residual activity (ALK (human)) of 92.3%, a residual activity (MST1R (human)) of 99.6% and a residual activity (TGFBR1 (human)) of 95.6%. It also gave a residual activity (DSTYK (human)) of 97.8%, a residual activity (PHKG2 (human)) of 85.6% and a residual activity (TEK (human)) of 99.9%.

For CN(C)C[C@H]1CCn2c(c(C3=C(c4cn(C)c5ccccc45)C(=O)NC3=O)c3ccccc32)C1, the residual activity (ERBB4 (human)) was 84.3%, the residual activity (CAMK1 (human)) was 105% and the residual activity (ROCK1 (human)) was 106%. It also gave a residual activity (PNCK (human)) of 95.2%, a residual activity (HIPK2 (human)) of 94.1% and a residual activity (MAP2K2 (human)) of 101%. It also gave a residual activity (EPHB2 (human)) of 110%, a residual activity (KDR (human)) of 101% and a residual activity (NUAK1 (human)) of 90.9%. For the same molecule, the residual activity (CSF1R (human)) was 98.1%, the residual activity (CLK3 (human)) was 94.7% and the residual activity (MAPK10 (human)) was 101%. The residual activity (PRKX (human)) was 97.8%, the residual activity (RPS6KB2 (human)) was 67.6% and the residual activity (MAP3K8 (human)) was 95%. It also gave a residual activity (RAF1 (human)) of 96.6%, a residual activity (IRAK4 (human)) of 107% and a residual activity (ZAP70 (human)) of 105%. The residual activity (CLK4 (human)) was 111%, the residual activity (MAP3K14 (human)) was 105% and the residual activity (PAK6 (human)) was 114%. The residual activity (STK11 (human)) was 91.9%, the residual activity (LTK (human)) was 101% and the residual activity (NEK7 (human)) was 100%. It also gave a residual activity (MAPK9 (human)) of 105%, a residual activity (CSNK1G3 (human)) of 104% and a residual activity (MARK4 (human)) of 93.9%. For the same molecule, the residual activity (JAK3 JH1 JH2 (human)) was 89.4%, the residual activity (DYRK4 (human)) was 98.9% and the residual activity (PAK4 (human)) was 104%. For the same molecule, the residual activity (ULK2 (human)) was 105%, the residual activity (MST4 (human)) was 78% and the residual activity (CDK5 CDK5R1 p25 (human)) was 84.7%. For the same molecule, the residual activity (CLK2 (human)) was 85.9%, the residual activity (TAOK2 (human)) was 87.7% and the residual activity (FER (human)) was 69.2%. For the same molecule, the residual activity (ALK (human)) was 99.6%, the residual activity (MST1R (human)) was 98.3% and the residual activity (TGFBR1 (human)) was 99.8%. For the same molecule, the residual activity (DSTYK (human)) was 89.4%, the residual activity (PHKG2 (human)) was 104% and the residual activity (TEK (human)) was 98.4%.

Work on O=C1NC(=O)C(c2cn(CCCO)c3ncccc23)=C1c1cnccn1 yielded a residual activity (ERBB4 (human)) of 115%, a residual activity (CAMK1 (human)) of 101% and a residual activity (ROCK1 (human)) of 90.2%. For the same molecule, the residual activity (PNCK (human)) was 94.9%, the residual activity (HIPK2 (human)) was 96.6% and the residual activity (MAP2K2 (human)) was 90.3%. For the same molecule, the residual activity (EPHB2 (human)) was 78.3%, the residual activity (KDR (human)) was 82.1% and the residual activity (NUAK1 (human)) was 59.4%. It also gave a residual activity (CSF1R (human)) of 98.4%, a residual activity (CLK3 (human)) of 67.8% and a residual activity (MAPK10 (human)) of 88%. It also gave a residual activity (PRKX (human)) of 106%, a residual activity (RPS6KB2 (human)) of 94.7% and a residual activity (MAP3K8 (human)) of 97%. For the same molecule, the residual activity (RAF1 (human)) was 100%, the residual activity (IRAK4 (human)) was 129% and the residual activity (ZAP70 (human)) was 87.8%. It also gave a residual activity (CLK4 (human)) of 100%, a residual activity (MAP3K14 (human)) of 78.1% and a residual activity (PAK6 (human)) of 78.2%. It also gave a residual activity (STK11 (human)) of 83.1%, a residual activity (LTK (human)) of 90.9% and a residual activity (NEK7 (human)) of 95.4%. The residual activity (MAPK9 (human)) was 100%, the residual activity (CSNK1G3 (human)) was 107% and the residual activity (MARK4 (human)) was 93.9%. It also gave a residual activity (JAK3 JH1 JH2 (human)) of 134%, a residual activity (DYRK4 (human)) of 98.4% and a residual activity (PAK4 (human)) of 111%. For the same molecule, the residual activity (ULK2 (human)) was 96.7%, the residual activity (MST4 (human)) was 78.7% and the residual activity (CDK5 CDK5R1 p25 (human)) was 103%. For the same molecule, the residual activity (CLK2 (human)) was 98.9%, the residual activity (TAOK2 (human)) was 88.1% and the residual activity (FER (human)) was 99.2%. The residual activity (ALK (human)) was 105%, the residual activity (MST1R (human)) was 96.1% and the residual activity (TGFBR1 (human)) was 98.5%. For the same molecule, the residual activity (DSTYK (human)) was 78%, the residual activity (PHKG2 (human)) was 102% and the residual activity (TEK (human)) was 103%.
